{"source": "patent US20130171161A1", "about": "“METHOD AND COMPOSITION FOR THE TREATMENT OF DISEASES CAUSED BY OR ASSOCIATED WITH HIV” (priority 2010, published 2013)", "key": {"[1]": {"system": "HIV-1 LAI", "assay": "Inhibition of HIV-reverse transcriptase activity in supernatant of infected human peripheral blood mononuclear cells, Example 2", "assay_type": "cell-based", "conditions": "8 nM; added 15-30 minutes after infection", "protocol": "The assessment of antiretroviral activity of ultra low-dose rabbit polyclonal antibodies to CD4 (a mixture of homoeopathic dilutions C12+C30+C50) (hereinafter referred to as “ultra low-dose antibodies to CD4) was carried out using human peripheral blood mononuclear cells infected with the strain HIV-1 LAI in vitro. Azidothymidine (Sigma—AZ169-100 mg, lot 107K1578) was used as a comparator product.\nHuman peripheral blood mononuclear cells were isolated from blood of a seronegative healthy donor by centrifugation on a Ficoll-Hypaque density gradient. The cells were stimulated for 3 days with 1 μg/mL of phytohemagglutinin P and 5 IU/mL of recombinant human interleukin-2 in RPMI1640 (DIFCO) medium supplemented with 10% fetal calf serum (the complement was removed by heating for 45 minutes at 56° C.), 1% antibiotic solution (PSN Gibco containing 50 μg/mL of penicillin, 50 μg/mL of streptomycin and 100 μg/mL of neomycin). […]\nThe products' efficiency was established by the inhibition of HIV replication which was assessed by HIV-reverse transcriptase activity in the supernatant fluid from human peripheral blood mononuclear cells using the HIV RT RetroSys kit made by INNOVAGEN (Lot 10-059C). […]"}, "[2]": {"system": "HIV-strain-1-LAI", "assay": "Inhibition of HIV replication (p24 content) in infected mononuclear cells of human blood, Example 3", "assay_type": "cell-based, HIV-1", "conditions": "1000 nM, day 7, read-out: inhibition of HIV reaction (p24 in supernatant)", "from_the_text": "The experimental study involved the affine purified rabbit polyclonal antibodies to the human IFN-gamma. The affine purified rabbit polyclonal antibodies to the human gamma interferon were used for development of the (potentiated) antibodies to the gamma interferon in a very-low-dose in the form of serial dilutions C12+C30+C50, obtained in accordance with a homeopathic technology (hereinafter referred to as Ab to IFN-γ in VLD).\nAntiviral activity of the composition under review Ab to IFN-γ in VLD and azidothymidine (preparation, based on an active substance of Zidovudine) was studied within the context of mononuclear cells of the human blood, infected in vitro with the HIV-strain-1-LAI. The efficiency of replicating inhibition of HIV was assessed according to the content of a main nucleocapsid protein p24 HIV in the supernatant fluid of the mononuclear cells of the human peripheral blood. […]\nSupernatant fluid of the cell culture was collected on the seventh (7) day subsequent to the contamination. The efficiency of the preparations was assessed according to the inhibition of HIV reaction, in its turn assessed in accordance with the content of a main nucleocapsid protein p24 HIV in the supernatant cells by method of IFA, immunofluorescent assay (Retrotek Elisa kit)."}, "[3]": {"system": "HIV-1 LAI", "assay": "Inhibition of HIV replication (p24 level) in human peripheral blood mononuclear cells infected in vitro, Example 1", "assay_type": "cell-based", "conditions": "Human immunodeficiency virus 1, PBMC; 1000 nM added 24 hours before infection; day 7; read-out: inhibition of HIV replication (p24 in supernatant)", "protocol": "The assessment of antiretroviral activity of ultra low-dose of rabbit polyclonal antibodies to CD4 receptor (a mixture of homoeopathic dilutions C12+C30+C50) (ULD Ab CD4)), was carried out using human peripheral blood mononuclear cells infected with the strain HIV-1 LAI in vitro.\nHuman peripheral blood mononuclear cells were isolated from blood of a seronegative healthy donor by centrifugation on a Ficoll-Hypaque density gradient. The cells were stimulated for 3 days with 1 μg/mL of phytohemagglutinin P and 5 IU/mL of recombinant human interleukin-2.\nIn order to assess antiretroviral activity the products were placed in a well containing 100 μL of activated mononuclears 24 hours before or 15 min after cell infection with the strain HIV-1-LAI at the dose of 100 TCID50 (50 μL inoculum of the strain HIV-1-LAI). Before adding to a well, ULD Ab CD4 (12.5 μL) or reference azidotimidine (1000 nM) were mixed with RPMI1640 medium (DIFCO) to achieve a final probe volume of 50 μL\nThe supernatant fluids were collected on day 7 after infection of cells. The products' activity was measured by the inhibition of HIV replication which was assessed by the level of core nucleocapsid protein p24 in the supernatant fluid from human peripheral blood mononuclear cells using Retrotek Elisa kit."}}, "note": "Read-outs that look alike come from different tables or passages of the source."}
{"smiles": "Cc1cn([C@H]2C[C@H](N=[N+]=[N-])[C@@H](CO)O2)c(=O)[nH]c1=O", "note": "[Azidothymidine]", "values": [{"measurement": "Inhibition of HIV-reverse transcriptase activity (% of control) Day 7", "setting": "[1]", "result": "58 ± 7 % of control"}, {"measurement": "inhibition at 1 µM", "setting": "[2]; Human immunodeficiency virus 1, 168 h, introduced 24 prior to contamination", "result": 99, "unit": "%"}, {"measurement": "inhibition at 1 µM", "setting": "[2]; Human immunodeficiency virus 1, introduced 15 minutes after contamination", "result": "99 ± 1", "unit": "%"}, {"measurement": "inhibition at 1 µM", "setting": "[3]", "result": 99, "unit": "%"}]}
